From article PMC5799700, “Screening for PPAR Non-Agonist Ligands Followed by Characterization of a Hit, AM-879, with Additional No-Adipogenic and cdk5-Mediated Phosphorylation Inhibition Properties” (Frontiers in Endocrinology, 2018)
Entries after “also recorded” stand apart in the source; their conditions may differ.

How the values were obtained:
PPARγ [1] = target: T1, PPARγ (Homo sapiens, UniProt P37231); experiment: Cell transactivation assay, GAL4-PPARγ-LBD reporter gene; assay type: cell-based; conditions: 293T cells, up to 0.1 mM
T1 construct: a chimeric protein composed by GAL4-DBD and PPARγ-LBD; expressed in transfected cells; host or cells: 293T (ATCC CRL-3216)
T1 sequence (P37231 238-503 limits assumed): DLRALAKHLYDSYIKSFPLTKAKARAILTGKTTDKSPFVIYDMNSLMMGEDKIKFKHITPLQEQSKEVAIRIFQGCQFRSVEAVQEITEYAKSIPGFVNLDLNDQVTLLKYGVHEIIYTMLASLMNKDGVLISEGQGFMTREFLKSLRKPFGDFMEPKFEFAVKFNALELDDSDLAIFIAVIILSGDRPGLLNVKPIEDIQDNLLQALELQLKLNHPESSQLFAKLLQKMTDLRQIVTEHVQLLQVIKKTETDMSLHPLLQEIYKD
Protocol: (§1) For transactivation assays, cells were seeded in 24-well plates (density of 2.0 × 10^5 cells/well), and transiently transfected with Lipofectamine® 2000 (Invitrogen) and 0.5 μg of the following plasmids: pRL-TK, a transfection control, which express Renilla reniformis luciferase constitutively; pGRE-LUC, which contains responsive element for GAL4 protein followed by reporter gene of firefly luciferase; pBIND-PPARγ, a chimeric protein composed by GAL4-DBD and PPARγ-LBD, under control of the cytomegalovirus promoter (CMV), in a proportion of 1.5 μg DNA:2 μL of Lipofectamine. As negative control, empty BlueScript plasmid was used instead of pBIND-PPARγ. For isotype specificity transactivation assay, cells were seeded in 96-well plates (density of 4.0 × 10^4 cells/well) and transfected with pRL-TK; pGRE-LUC and pBIND-PPARα; and pBIND-PPARβ.
(§2) Four hours after transfection, the culture medium was exchanged to DMEM plus 10% FBS Charcoal stripped broth and 1 μM of each tested compound, Rosi or 1% DMSO was added to each well. In dose–response experiments, concentration of compounds was increased from 0.01 to 0.1 mM. After 24 h of treatment, reporter gene expression was measured with Dual-Luciferase® Reporter (DLR™) Assay System (Promega), according to manufacturer’s instructions in a GloMax-Multi + Detection System (Promega). […]

PPARγ LBD [2] = target: T2, PPARγ LBD (Homo sapiens, UniProt P37231); experiment: Thermal shift assay (TSA), SYPRO Orange; assay type: binding; conditions: PPARγ 4 μM, threefold ligand excess (12 μM)
T2 construct: construction (isoform PPARγ1), encoding AAs 207–477, inserted in pET 28a (+); made in house; host or cells: Escherichia coli BL21 (DE3)
T2 sequence (P37231 207-477 isoform P37231-2): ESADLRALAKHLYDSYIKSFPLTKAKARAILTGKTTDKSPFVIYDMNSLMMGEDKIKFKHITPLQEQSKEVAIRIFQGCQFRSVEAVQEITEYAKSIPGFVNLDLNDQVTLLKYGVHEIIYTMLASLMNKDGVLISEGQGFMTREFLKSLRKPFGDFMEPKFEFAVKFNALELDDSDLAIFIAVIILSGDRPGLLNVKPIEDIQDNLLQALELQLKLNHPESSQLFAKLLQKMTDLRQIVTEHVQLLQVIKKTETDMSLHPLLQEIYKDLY
Protocol: Protein thermal unfolding was monitored by measuring the SYPRO® Orange probe (Life technologies) fluorescence. […] Rosi was used as a PPARγ full agonist control and, dimethyl sulfoxide (DMSO), as apo-PPARγ control. TSA was performed in triplicates, in 96-well PCR microplates (Applied Biosystems—Life Technologies), through an RT-PCR device (7500 Real Time PCR System). Samples were heated at 1°C per min, from 10 to 90°C. Fluorescence intensities were plotted as a function of temperature and, the melting temperature (Tm) of the protein unfolding transition was obtained through a Boltzmann model in Origin Pro 8.1 and using an Excel based worksheet (DSF Analysis v3.0.2, ftp://ftp.sgc.ox.ac.uk/pub/biophysics).

PPARγ LBD [3] = target: T2, PPARγ LBD; experiment: ANS fluorescence quenching ligand-binding assay; conditions: PPARγ 1 μM, ANS 10 μM, ligand 0.1-60 μM, Hill model, 25°C; read-out: Kd (dissociation constant) from ANS displacement
Protocol: 8-Anilino-1-naphthalenesulfonic acid fluorescence quenching assay was performed incubating 1 μM of PPARγ with 10 μM of the fluorescent probe ANS for 30 min. Following this, increasing concentrations (0.1–60 μM) of the pre-selected 20 compounds were titrated in protein-ANS solution. […] Fluorescence data were fitted to binding curves using Hill model for dissociation constant (Kd) calculation. All experiments were performed in triplicates and data were processed using the software Origin Pro 8.1.

PPARα = target: T3, PPARα (Homo sapiens, UniProt Q07869); experiment: Isotype specificity transactivation assay, GAL4-PPARα-LBD reporter gene; assay type: cell-based; conditions: 293T cells, ligands 1 μM, compared with full agonist
T3 construct: using a GAL4-PPARα-LBD (A) or GAL4-PPARβ-LBD (B) reporter gene; expressed in transfected cells; host or cells: HEK 293T
T3 sequence (Q07869 239-466 limits assumed): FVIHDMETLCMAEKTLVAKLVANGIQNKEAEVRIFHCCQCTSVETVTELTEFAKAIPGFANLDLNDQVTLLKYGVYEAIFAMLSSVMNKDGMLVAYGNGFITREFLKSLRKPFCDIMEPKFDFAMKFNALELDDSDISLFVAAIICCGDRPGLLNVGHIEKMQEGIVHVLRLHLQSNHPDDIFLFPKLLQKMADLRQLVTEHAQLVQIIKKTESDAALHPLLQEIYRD
Protocol: as §1, with “293T (ATCC® CRL-3216™) cells were cultured in Dulbecco’s Modified Eagle’s Medium (DMEM, Gibco®) supplemented with 10% (v/v) fetal bovine serum, 50 U/mL penicillin, and […] streptomycin, at 37°C, and humidified atmosphere of 5% CO2. For” for “For”, “For isotype specificity transactivation assay, cells were seeded in 96-well plates (density of 4.0 × 10^4 cells/well) and transfected with pRL-TK; pGRE-LUC and pBIND-PPARα; and pBIND-PPARβ.” left out
as §2, with “In dose–response experiments, concentration of compounds was increased from 0.01 to 0.1 mM.” left out

PPARγ LBD [4] = target: T2, PPARγ LBD; experiment: NanoDSF, intrinsic tryptophan and tyrosine fluorescence; assay type: binding; conditions: PPARγ 25 μM, ligand 75 μM (3 M excess)
Protocol: Intrinsic tryptophan and tyrosine fluorescence were measured using NT48 device (NanoTemper), as a more sensitive technology to check protein stability in comparison to TSA. […] The initial fluorescence scan of loaded capillaries was performed at 20°C, monitoring emission wavelength at 330 and 350 nm in order to find the optimal signal range. After this step, samples were subjected to a temperature ramp of 1°C/min from 20 to 90°C and fluorescence was constantly monitored. Data were analyzed and Tm was determined using PR. ThermControl software (NanoTemper).

PPARβ = target: T4, PPARβ (Homo sapiens, UniProt Q03181); experiment: Isotype specificity transactivation assay, GAL4-PPARβ-LBD reporter gene; assay type: cell-based; conditions: 293T cells, ligands 1 μM, compared with full agonist
T4 construct: using a GAL4-PPARα-LBD (A) or GAL4-PPARβ-LBD (B) reporter gene; expressed in transfected cells; host or cells: HEK 293T
T4 sequence (Q03181 211-439 limits assumed): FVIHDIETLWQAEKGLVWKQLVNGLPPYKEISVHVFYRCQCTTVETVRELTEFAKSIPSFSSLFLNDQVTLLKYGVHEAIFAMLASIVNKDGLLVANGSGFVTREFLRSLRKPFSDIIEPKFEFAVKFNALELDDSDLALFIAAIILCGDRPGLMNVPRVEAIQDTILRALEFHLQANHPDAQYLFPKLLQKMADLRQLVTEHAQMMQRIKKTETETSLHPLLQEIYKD
Protocol: as §1, with “293T (ATCC® CRL-3216™) cells were cultured in Dulbecco’s Modified Eagle’s Medium (DMEM, Gibco®) supplemented with 10% (v/v) fetal bovine serum, 50 U/mL penicillin, and […] streptomycin, at 37°C, and humidified atmosphere of 5% CO2. For” for “For”, “For isotype specificity transactivation assay, cells were seeded in 96-well plates (density of 4.0 × 10^4 cells/well) and transfected with pRL-TK; pGRE-LUC and pBIND-PPARα; and pBIND-PPARβ.” left out
as §2, with “In dose–response experiments, concentration of compounds was increased from 0.01 to 0.1 mM.” left out

[5] = tested on: PPARγ target genes in 3T3-L1 cells; experiment: Gene expression analysis (RT-qPCR) in differentiated 3T3-L1 cells; assay type: cell-based; conditions: 1 μM ligand, vs DMSO
Protocol: Total RNA from differentiated 3T3-L1 cells was extracted by RNeasy kit (Qiagen) and cDNAs were synthesized with High-Capacity cDNA Reverse Transcription Kit (ThermoFischer Scientific). Quantitative PCR reactions were performed with SYBR Real Time PCR master mixes (ThermoFischer Scientific) and 50 ng of cDNA, in a 7500 Real Time PCR system (Applied Biosystems). Relative mRNA expression was determined by the ΔΔ-Ct method normalized to GAPDH levels. The sequences of primers used in this study are presented in Table S2 in Supplementary Material.

3T3-L1 cells = experiment: Adipocyte differentiation assay, Oil Red O; assay type: cell-based; conditions: 1 μM ligand; for Adipocyte differentiation / adipogenesis (in words): Oil Red O staining
Protocol: 3T3-L1 (ATCC® CRL-3242™) cells were cultured in DMEM (Gibco®) supplemented with 10% (v/v) fetal bovine serum, 50 U/mL penicillin, and […] streptomycin, at 37°C, and humidified atmosphere of 5% CO2. After achieved 70% confluency, cells were trypsinized and seeded in 6-well plates (Corning) at a density of 2.8 × 10^5 cells/well. After 2 days, cells were treated with dexamethasone ([…]) to induce preadipocytes differentiation, and 1 μM of Rosi, 1 μM of AM-879, or 1% DMSO. After treatment, the culture medium was exchanged every 48 h, supplemented with 1 μM of each ligand, for 6 days. In order to measure adipocyte differentiation, fully differentiated 3T3-L1 cells were washed with phosphate-buffered saline (PBS), fixed with 10% formalin (v/v) for 1 h, and then, stained with oil red solution (Oil Red O) (0.3% in isopropanol 60%) for 20 min. After staining, cells were washed with PBS and photographed in Nikon MTS microscope (Nikon). Lipid accumulation was also quantified by Oil Red O absorbance measurement at 520 nm. For this measurement, cells lysis was performed in 200 μL of isopropanol and 4% Igepal solution, and the absorbance of the samples was recorded in a 10-mm cuvette in a spectrophotometer (V-530, Jasco). Data were compared using unpaired t-test.

PPARγ [6] = target: T1, PPARγ; design: method as in PMID 24075729; conditions: cited from earlier work
[7] = target: T5, CDK5-mediated phosphorylation of PPARγ at serine 273 (Homo sapiens, UniProt P37231); experiment: In vitro phosphorylation assay (ADP-Glo); assay type: biochemical; conditions: PPARγ LBD 1.2 μM, 5 M excess of ligand, 50 ng CDK5/p35, ATP 10 μM, 1 h
T5 construct: construction (isoform PPARγ1), encoding AAs 207–477, inserted in pET 28a (+); host or cells: Escherichia coli BL21 (DE3) for PPARγ LBD
T5 sequence (P37231 207-477 isoform P37231-2): T2 sequence (P37231 207-477 isoform P37231-2)
Protocol: Then, protein and ligands were incubated with 50 ng CDK5/p35 (Sigma), for 1 h, at room temperature, in the CDK5/p35 reaction buffer (composition recommended by manufacturer) and in the presence of ATP 10 μM. After reaction, ADP detection was performed by using ADP-Glo™ kinase assay (Promega) following manufacturer’s instructions. Luminesce signal was recorded using GloMax-Multi + Detection System (Promega) microplate luminometer.

| Tm from TSA (PPARγ LBD [2]) [°C] | Kd (PPARγ LBD [3]) [µM] | PPARα activation (PPARα) | Tm from nanoDSF (PPARγ LBD [4]) [°C] | PPARβ activation (PPARβ) | Decrease of CDK5-mediated phosphorylation of PPARγ (Ser 273) [7] [%] | SMILES | PPARγ activation (dose-response, in words) (PPARγ [1]) | Adipoq (Adiponectin) relative expression [5] | Cd36 relative expression [5] | Cebpa relative expression [5] | Cfd (Adipsin) relative expression [5] | Lep (Leptin) relative expression [5] | Lpl relative expression [5] | Pparg relative expression [5] | Lipid accumulation (Oil Red O absorbance at 520 nm) in comparison with DMSO (3T3-L1 cells; 6 days) [fold] | Adipocyte differentiation / adipogenesis (in words) (3T3-L1 cells) | Effect on PPARγ activation (earlier description as possible antagonist) (PPARγ [6]) |
| --- | --- | --- | --- | --- | --- | --- | --- | --- | --- | --- | --- | --- | --- | --- | --- | --- | --- |
| 49.4 ± 0.1 | 3.3 ± 0.7 | none of them activated | 48.0 ± 0.172 | none of them activated | – | O=C(O)c1ccc(/C=C/C(=O)c2ccc3ccccc3c2)cc1 [P11] | did not activate PPARγ even at the highest concentration; also recorded: did not present any significant change in PPARγ activation | – | – | – | – | – | – | – | – | – | – |
| 49.83 ± 0.01 | 4.5 ± 0.6 | none of them activated | 48.8 ± 0.114 | none of them activated | 28 | O=C(O)c1ccc(COc2ccccc2C=C2C(=O)c3ccccc3C2=O)cc1 [AM-879, 4-({2-[(1,3-dioxo-1,3-dihydro-2H-inden-2-ylidene)methyl]phenoxy}methyl) benzoic acid] | did not activate PPARγ even at the highest concentration; also recorded: did not present any significant change in PPARγ activation | slightly reduced levels | slightly reduced levels | did not alter | slightly reduced levels | did not alter | did not alter | did not alter | 1.12 ± 0.13 | did not induce a significant increase in adipocyte differentiation | reduced the activation of the receptor |
| – | – | – | – | – | – | CN(CCOc1ccc(CC2SC(=O)NC2=O)cc1)c1ccccn1 (stereo not drawn) [Rosiglitazone, rosiglitazone, reference compound] | – | – | – | – | – | – | – | – | – | strongly induced adipogenesis | – |
